Source: US4593090A, “Novel nitrosourea compounds, method for preparing same, and pharmaceutical composition containing same” (Gogo Kimura, priority 1981, dated 1986)

Legend:
[1] = Acute toxicity (LD50, Behrens-Karber method); assay type: in vivo, ICR mice; conditions: mouse, in vivo, ip, mortality during 30 days
Experimental: Test compounds, dissolved or suspended in 0.5% aqueous CMC, were each intraperitoneally administered to ICR mice in a dose of 0.1 ml per 10 g body weight. LD50 (mg/kg) value of each test compound was calculated from the mortality of mice during 30 days by the Behrens-Karber method.

[2] = test system: Leukemia L1210; assay: Activity against Leukemia L1210, intraperitoneal, increase in life span of mice; assay type: in vivo, female mice (BDF1 family); conditions: for ED (maximum ILS) / ED30: Mus musculus, L1210, ip, ip once a day for 5 successive days; for ED (maximum ILS): daily dosage giving maximum increase of life span, read-out: O.D. (optimum dosage); for ED30: daily dosage increasing average survival days by 30%, read-out: ILS30; for Survivors after 60 days / Max. ILS % / Therapeutic ratio TR: ip; for Survivors after 60 days: 6-membered group; for Max. ILS %: 60-day observation, versus control; for Therapeutic ratio TR: O.D./ILS30
Outline: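 Female BDF1 mice (20 to 23 g; 6 per group) were implanted intraperitoneally with 1×10^5 L1210 cells, then dosed ip or orally once daily for 5 days starting 24 h later. Survival was followed over 60 days, and ILS% was derived from mean survival days versus untreated controls.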

Row | SMILES | LD50 at 720 h [1] | ED (maximum ILS) [2] | ED30 [2] | Survivors after 60 days [2] | Max. ILS % [2] | Therapeutic ratio TR [2]
1 | CC(C)CO[C@H]1O[C@H](CO)[C@@H](O)[C@H](O)[C@H]1N(Cc1ccccc1)C(=O)N(CCCl)N=O [Compound 62, 3-benzyl-3-(isobutyl α-D-glucopyranose-2-yl)-1-(2-chloroethyl)-1-nitrosourea] | 565 mg/kg | 200 mg/kg | 7.8 mg/kg | 3/6 | > 340% | 25.6
2 | O=NN(CCCl)C(=O)N(CCCCO)C1C(OC2CCCCC2)OC(CO)C(O)C1O [Compound 66, 3-(4-hydroxy-n-butyl)-3-(cyclohexyl α-D-glucopyranose-2-yl)-1-(2-chloroethyl)-1-nitrosourea] | 620 mg/kg | 200 mg/kg | 8.55 mg/kg | 3/6 | > 345% | 23.4
3 | O=NN(CCCl)C(=O)N(CCC1CCCC1)C1C(OC2CCCCC2)OC(CO)C(O)C1O [Compound 67, 3-(2-cyclopentylethyl)-3-(cyclohexyl α-D-glucopyranose-2-yl)-1-(2-chloroethyl)-1-nitrosourea] | 650 mg/kg | 200 mg/kg | 7.5 mg/kg | 3/6 | > 355% | 28.6
4 | COCCCOC1OC(CO)C(O)C(O)C1N(CC(C)C)C(=O)N(CCCl)N=O [Compound 68, 3-isobutyl-3-(3-methoxy-n-propyl α-D-glucopyranose-2-yl)-1-(2-chloroethyl)-1-nitrosourea] | 500 mg/kg | 170 mg/kg | 4.43 mg/kg | 4/6 | > 425% | 38.4
5 | CCOCCCOC1OC(CO)C(O)C(O)C1N(C(=O)N(CCCl)N=O)C(C)CC [Compound 69, 3-sec-butyl-3-(3-ethoxy-n-propyl α-D-glucopyranose-2-yl)-1-(2-chloroethyl)-1-nitrosourea] | 560 mg/kg | – | – | 4/6 | > 435% | –
6 | COCC(C)OC1OC(CO)C(O)C(O)C1N(CC(C)C)C(=O)N(CCCl)N=O (stereo not drawn) [Compound 70] | 645 mg/kg | 200 mg/kg | 5.21 mg/kg | 4/6 | > 420% | 38.4
7 | COCC(C)OC1OC(CO)C(O)C(O)C1N(CC1CC1)C(=O)N(CCCl)N=O [Compound 72, 3-cyclopropylmethyl-3-(1-methyl-2-methoxyethyl α-D-glucopyranose-2-yl)-1-(2-chloroethyl)-1-nitrosourea] | 550 mg/kg | 180 mg/kg | 4.53 mg/kg | 5/6 | > 625% | 39.7
8 | CC(C)CN(C(=O)N(CCCl)N=O)C1C(OC2CCCCC2)OC(CO)C(O)C1O [Compound 73, 3-isobutyl-3-(cyclohexyl α-D-glucopyranose-2-yl)-1-(2-chloroethyl)-1-nitrosourea] | 670 mg/kg | 200 mg/kg | 5.38 mg/kg | 4/6 | > 420% | 37.2
9 | CCCCN(C(=O)N(CCCl)N=O)C1C(O)C(CO)OC(OCCCOC)C1O [Compound 76, 3-n-butyl-3-(3-methoxy-n-propyl α-D-glucopyranose-3-yl)-1-(2-chloroethyl)-1-nitrosourea] | 650 mg/kg | 200 mg/kg | 5.21 mg/kg | 3/6 | > 360% | 38.4
10 | COCCCOC1OC(CO)C(O)C(N(CC(C)C)C(=O)N(CCCl)N=O)C1O [Compound 77, 3-isobutyl-3-(3-methoxy-n-propyl α-D-glucopyranose-3-yl)-1-(2-chloroethyl)-1-nitrosourea] | 685 mg/kg | 200 mg/kg | 5.08 mg/kg | 4/6 | > 425% | 39.4
11 | CCOCCCOC1OC(CO)C(O)C(N(CC(C)C)C(=O)N(CCCl)N=O)C1O [Compound 78, 3-isobutyl-3-(3-ethoxy-n-propyl α-D-glucopyranose-3-yl)-1-(2-chloroethyl)-1-nitrosourea] | 675 mg/kg | 200 mg/kg | 5.33 mg/kg | 3/6 | > 355% | 37.5
12 | COCC(C)OC1OC(CO)C(O)C(N(CC(C)C)C(=O)N(CCCl)N=O)C1O [Compound 79, 3-isobutyl-3-(1-methyl-2-methoxyethyl α-D-glucopyranose-3-yl)-1-(2-chloroethyl)-1-nitrosourea] | 690 mg/kg | 200 mg/kg | 4.93 mg/kg | 4/6 | > 430% | 40.6
13 | CCCCOC1OC(CO)C(O)C(N(C(=O)N(CCCl)N=O)C(C)CC)C1O [Compound 81, 3-sec-butyl-3-(n-butyl β-D-glucopyranose-3-yl)-1-(2-chloroethyl)-1-nitrosourea] | 580 mg/kg | 200 mg/kg | 5.8 mg/kg | 3/6 | > 360% | 34.5
14 | CCC(C)OC1OC(CO)C(O)C(N(CC(C)C)C(=O)N(CCCl)N=O)C1O [Compound 84, 3-isobutyl-3-(sec-butyl α-D-glucopyranose-3-yl)-1-(2-chloroethyl)-1-nitrosourea] | 695 mg/kg | 220 mg/kg | 5.8 mg/kg | 3/6 | > 355% | 37.9
15 | C=C(C)CN(C(=O)N(CCCl)N=O)C1C(O)C(CO)OC(OC(C)CC)C1O [Compound 85, 3-(2-methyl-2-propenyl)-3-(sec-butyl α-D-glucopyranose-3-yl)-1-(2-chloroethyl)-1-nitrosourea] | 685 mg/kg | 220 mg/kg | 7.25 mg/kg | 3/6 | > 360% | 30.3
16 | COCC(C)N(C(=O)N(CCCl)N=O)C1C(O)C(CO)OC(OC2CCCCC2)C1O [Compound 87, 3-(1-methyl-2-methoxyethyl)-3-(cyclohexyl α-D-glucopyranose-3-yl)-1-(2-chloroethyl)-1-nitrosourea] | 720 mg/kg | 200 mg/kg | 4.24 mg/kg | 6/6 | > 700% | 47.2
17 | O=NN(CCCl)C(=O)N(CCC1CCCC1)C1C(O)C(CO)OC(OC2CCCCC2)C1O [Compound 88, 3-(2-cyclopentylethyl)-3-(cyclohexyl α-D-glucopyranose-3-yl)-1-(2-chloroethyl)-1-nitrosourea] | 710 mg/kg | 200 mg/kg | 6.62 mg/kg | 3/6 | > 360% | 30.2
18 | CCCN(C(=O)N(CCCl)N=O)C1C(CO)OC(OCC(C)C)C(O)C1O [Compound 90, 3-n-propyl-3-(isobutyl α-D-glucopyranose-4-yl)-1-(2-chloroethyl)-1-nitrosourea] | 325 mg/kg | 100 mg/kg | 3.07 mg/kg | 3/6 | > 350% | 32.6
19 | C=C(C)CN(C(=O)N(CCCl)N=O)C1C(CO)OC(OC(C)CC)C(O)C1O [Compound 91, 3-(2-methyl-2-propenyl)-3-(sec-butyl α-D-glucopyranose-4-yl)-1-(2-chloroethyl)-1-nitrosourea] | 450 mg/kg | 150 mg/kg | 4.65 mg/kg | 3/6 | > 340% | 32.3
